In ChEMBL document CHEMBL4342470, “Detection of Active Granzyme A in NK92 Cells with Fluorescent Activity-Based Probe” (J Med Chem, 2020):
The source made the active and inactive calls. The calls are words filed in the database; no cut-off is given here. Non-standard residues stand in square brackets, D forms with d. Residues, ends and D or L forms follow the SMILES beside them. ξ: configuration not given here. *: point of attachment. Phe(4-guanidino) = N=C(N)Nc1ccc(C[C@H](N)C(=O)O)cc1; Oic(3aξ,7aξ) = O=C(O)[C@@H]1CC2CCCCC2N1; Phe(4-F) = N[C@@H](Cc1ccc(F)cc1)C(=O)O; ACC = NC(=O)Cc1cc(=O)oc2cc(N*)ccc12; Met(O) = CS(=O)CC[C@H](N)C(=O)O; Tic = O=C(O)[C@@H]1Cc2ccccc2CN1; X1 = Clc1cccc(Cl)c1C*

Assays:
[1] = biological target: T1, Granzyme A (Homo sapiens) (UniProt P12544); experiment: Substrate activity at Granzyme A (unknown origin) expressed in Pichia pastoris incubated for 30 mins by fluorescence based assay
T1 sequence (whole entry): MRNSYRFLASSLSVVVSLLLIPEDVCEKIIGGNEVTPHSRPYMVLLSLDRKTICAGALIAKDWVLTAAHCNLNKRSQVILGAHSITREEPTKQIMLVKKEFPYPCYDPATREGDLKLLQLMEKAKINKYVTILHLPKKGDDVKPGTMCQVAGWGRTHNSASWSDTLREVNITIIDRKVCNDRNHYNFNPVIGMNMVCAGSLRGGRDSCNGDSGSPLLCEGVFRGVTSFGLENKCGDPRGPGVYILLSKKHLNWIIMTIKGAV

[2] = biological target: Granzyme B (Homo sapiens) (UniProt P10144); experiment: Substrate activity at Granzyme B (unknown origin) expressed in Pichia pastoris assessed as compound hydrolysis at 200 uM incubated for 30 mins by fluorescence based assay relative to control
Sequence of Granzyme B (Homo sapiens) (P10144 whole entry): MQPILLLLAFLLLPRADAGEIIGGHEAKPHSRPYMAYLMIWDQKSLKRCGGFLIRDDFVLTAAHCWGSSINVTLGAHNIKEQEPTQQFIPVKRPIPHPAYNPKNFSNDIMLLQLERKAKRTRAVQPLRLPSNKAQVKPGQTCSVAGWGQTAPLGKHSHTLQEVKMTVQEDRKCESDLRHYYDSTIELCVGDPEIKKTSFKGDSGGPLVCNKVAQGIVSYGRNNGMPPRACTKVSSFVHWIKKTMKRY

Structure (SMILES): CC(=O)N[C@@H](CC[S+](C)[O-])C(=O)NCC(=O)N[C@@H](Cc1ccc(F)cc1)C(=O)N[C@@H](CCCNC(=N)N)C(=O)Nc1ccc2c(CC(N)=O)cc(=O)oc2c1 (stereo partly drawn) (Ac-[Met(O)]G[Phe(4-F)]R-{ACC})
- Activity [1]: Active

Structure (SMILES): CC(=O)N[C@@H](CC[S+](C)[O-])C(=O)NCC(=O)N[C@@H](Cc1ccc(OCc2c(Cl)cccc2Cl)cc1)C(=O)N[C@@H](CCCNC(=N)N)C(=O)Nc1ccc2c(CC(N)=O)cc(=O)oc2c1 (stereo partly drawn) (Ac-[Met(O)]GY(X1)R-{ACC})
- Activity [1]: Active

Structure (SMILES): CC(=O)N1Cc2ccccc2C[C@H]1C(=O)N[C@@H](CCc1nc2ccccc2s1)C(=O)N1C2CCCCC2C[C@H]1C(=O)N[C@@H](Cc1ccc(NC(=N)N)cc1)C(=O)Nc1ccc2c(CC(N)=O)cc(=O)oc2c1 (some centres undefined)
- Activity [1]: Active

Structure (SMILES): CC(=O)N1Cc2ccccc2C[C@H]1C(=O)NCC(=O)N1C2CCCCC2C[C@H]1C(=O)N[C@@H](Cc1ccc(NC(=N)N)cc1)C(=O)Nc1ccc2c(CC(N)=O)cc(=O)oc2c1 (some centres undefined) (Ac-[Tic]G[Oic(3aξ,7aξ)][Phe(4-guanidino)]-{ACC})
- Activity [1]: Active

Structure (SMILES): CC[C@H](C)[C@H](NC(C)=O)C(=O)NCC(=O)N1C2CCCCC2C[C@H]1C(=O)N[C@@H](CCCNC(=N)N)C(=O)Nc1ccc2c(CC(N)=O)cc(=O)oc2c1 (stereo partly drawn) (Ac-IG[Oic(3aξ,7aξ)]R-{ACC})
- Activity [1]: Active
- Activity [2]: Active

Structure (SMILES): CC(=O)N[C@@H](CC[S+](C)[O-])C(=O)NCC(=O)N1CC(OCc2ccccc2)C[C@H]1C(=O)N[C@@H](Cc1ccc(NC(=N)N)cc1)C(=O)Nc1ccc2c(CC(N)=O)cc(=O)oc2c1 (some centres undefined)
- Activity [1]: Active

Structure (SMILES): CC(=O)N[C@@H](CC[S+](C)[O-])C(=O)NCC(=O)N1CC(OCc2ccccc2)C[C@H]1C(=O)Nc1cccc(C(=O)Nc2ccc3c(CC(N)=O)cc(=O)oc3c2)c1 (some centres undefined)
- Activity [2]: Active

Structure (SMILES): CC(=O)N1Cc2ccccc2C[C@H]1C(=O)NC(CCc1nc2ccccc2s1)C(=O)N1C2CCCCC2C[C@H]1C(=O)N[C@@H](CCCNC(=N)N)C(=O)Nc1ccc2c(CC(N)=O)cc(=O)oc2c1 (some centres undefined)
- Activity [1]: Active
